Read-outs that look alike come from different tables or passages of the source.
Target: T1, human glyoxalase I (GLO I) (Homo sapiens, UniProt Q04760)
T1 construct: gene GLO1; recombinant GLO I
T1 sequence (Q04760 2-184): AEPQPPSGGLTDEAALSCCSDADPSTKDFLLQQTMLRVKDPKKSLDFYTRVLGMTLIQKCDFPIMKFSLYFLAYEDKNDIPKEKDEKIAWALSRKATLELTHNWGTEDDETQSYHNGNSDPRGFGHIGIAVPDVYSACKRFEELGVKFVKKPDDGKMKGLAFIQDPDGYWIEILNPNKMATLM
Test: spectrophotometric assay of S-D-lactoylglutathione formation at […] nm with recombinant GLO I
Assay type: biochemical

| IC50 (read-out: IC50) | Compound | IC50 |
| --- | --- | --- |
|  | Oc1cc(O)cc(/C=C/c2ccc(O)c(O)c2)c1 [piceatannol] | 750 nM |
| 4200 nM | Oc1cc(O)cc(C2c3c(/C=C/c4ccc(O)c(O)c4)cc(O)cc3OC2c2ccc(O)c(O)c2)c1 (centres unmarked) [scirpusin B] |  |

Source: paper PMC6728800, “Effect of piceatannol-rich passion fruit seed extract on human glyoxalase I–mediated cancer cell growth” (Biochemistry and Biophysics Reports, 2019)
